In DBAASP:
In brackets after ≈: the same amount, converted by molar mass. Several values for one entry are separate records, joined by “and”; a condition that tells them apart may be missing. Equal entries are not always repeated. One block for each molecule: values may come before it.

Key:
Assay in all cases: ≥ marks a high value that may be exact or a test limit, other limits are often not marked, values filed in µg/mL are converted to µM
[1] = tested on: Enterobacter cloacae ATCC 49141
[2] = tested on: Escherichia coli D21
[3] = tested on: Enterococcus faecalis ATCC 19433
[4] = tested on: Aspergillus fumigatus ATCC 26430
[5] = tested on: Staphylococcus aureus II ATCC 6538P
[6] = tested on: Pseudomonas aeruginosa ATCC 27853
[7] = tested on: Candida albicans ATCC 10231
[8] = tested on: Escherichia coli ATCC 25922
[9] = tested on: Acinetobacter baumannii ATCC 19606
[10] = tested on: Streptococcus pneumoniae ATCC 33400
[11] = tested on: Streptococcus pneumoniae ATCC 700677
[12] = tested on: Escherichia coli CGSC 5167
[13] = tested on: Enterococcus faecium ATCC 51559
[14] = tested on: Klebsiella pneumoniae ATCC 700603
[15] = tested on: Klebsiella pneumoniae ATCC 13883
[16] = tested on: Pseudomonas aeruginosa ATCC 10145
[17] = tested on: Enterococcus faecium ATCC 35667
[18] = tested on: Staphylococcus aureus ATCC 33591
[19] = tested on: Staphylococcus aureus ATCC 25923
[20] = tested on: Acinetobacter baumannii
[21] = tested on: Escherichia coli O29
[22] = tested on: Staphylococcus aureus mprF
[23] = tested on: Candida albicans ATCC 14053
[24] = tested on: Streptococcus pyogenes NZ131
[25] = tested on: Micrococcus luteus ATCC 49732
[26] = tested on: Serratia sp. ATCC 39006
[27] = tested on: Staphylococcus aureus ATCC 43330
[28] = tested on: Neisseria gonorrhoeae ATCC 49226
[29] = tested on: Proteus vulgaris ATCC 49132
[30] = tested on: Staphylococcus epidermidis ATCC 12228
[31] = tested on: Enterococcus faecalis ATCC 29212
[32] = tested on: Streptococcus agalactiae ATCC 12386
[33] = tested on: Salmonella enterica subsp. enterica serovar Typhimurium ATCC 14028
[34] = tested on: Staphylococcus saprophyticus ATCC 15305
[35] = tested on: Shigella sonnei ATCC 25931
[36] = tested on: Salmonella enterica subsp. enterica serovar Typhimurium C77-31
[37] = tested on: Pseudomonas aeruginosa ATCC 10419
[38] = tested on: Pseudomonas aeruginosa LCCI
[39] = tested on: Pseudomonas aeruginosa ATCC 21630
[40] = tested on: Pseudomonas aeruginosa LCGE
[41] = tested on: Pseudomonas aeruginosa ATCC 21625
[42] = tested on: Escherichia coli UB1005
[43] = tested on: Pseudomonas aeruginosa LCCE
[44] = tested on: Pseudomonas aeruginosa LC
[45] = tested on: Staphylococcus aureus ATCC 29213

Structure (SMILES): CC[C@H](C)[C@H](NC(=O)[C@H](CCCN=C(N)N)NC(=O)[C@H](CCC(N)=O)NC(=O)[C@@H](NC(=O)[C@@H](NC(=O)[C@H](CCCN=C(N)N)NC(=O)[C@@H](N)CCCCN)[C@@H](C)CC)C(C)C)C(=O)N[C@@H](CCCCN)C(=O)N[C@@H](CC(=O)O)C(=O)N[C@@H](Cc1ccccc1)C(=O)N[C@@H](CC(C)C)C(=O)N[C@@H](CCCN=C(N)N)C(=O)N[C@@H](CC(N)=O)C(=O)N[C@@H](CC(C)C)C(=O)N[C@H](C(=O)N1CCC[C@H]1C(=O)N[C@@H](CCCN=C(N)N)C(=O)N[C@H](C(=O)N[C@@H](CCC(=O)O)C(=O)N[C@@H](CO)C(=O)O)[C@@H](C)O)C(C)C [KRIVQRIKDFLRNLVPRTES]
MIC [20]: 9.16 µM (≈ 22.6 µg/mL)
MIC [21]: ≥ 64 µM
MIC [22]: 16 µM (≈ 39.5 µg/mL)
MIC [23]: 10 µM (≈ 24.7 µg/mL)
MIC [24]: 4 µM (≈ 9.88 µg/mL)
MIC [9]: 25.9 µM (≈ 64 µg/mL)
MIC [19]: > 64 µM

Structure (SMILES): CC[C@H](C)[C@H](NC(=O)[C@H](CCCCN)NC(=O)[C@H](CCCCN)NC(=O)[C@H](CC(C)C)NC(=O)[C@H](CCCN=C(N)N)NC(=O)[C@H](CCCCN)NC(=O)[C@H](CCCN=C(N)N)NC(=O)[C@@H](NC(=O)[C@H](CCCCN)NC(=O)[C@H](CCCCN)NC(=O)[C@H](CCCN=C(N)N)NC(=O)[C@H](CC(C)C)NC(=O)[C@H](CCCN=C(N)N)NC(=O)[C@H](CCCN=C(N)N)NC(=O)[C@H](Cc1ccccc1)NC(=O)[C@@H](N)CCCN=C(N)N)[C@@H](C)O)C(N)=O [RFRRLRKKTRKRLKKI]
MIC [36]: ≥ 128 µM
MIC [37]: ≥ 256 µM
MIC [38]: ≥ 256 µM
MIC [39]: ≥ 256 µM
MIC [40]: ≥ 256 µM
MIC [41]: ≥ 256 µM
MIC [42]: ≥ 128 µM
MIC [43]: ≥ 256 µM
MIC [30]: 32 µM (≈ 69.8 µg/mL)
MIC [31]: 128 µM (≈ 279 µg/mL)
MIC [6]: 256 µM (≈ 559 µg/mL)
MIC [8]: 128 µM (≈ 279 µg/mL)
MIC [44]: ≥ 32 µM
MIC [45]: 128 µM (≈ 279 µg/mL)

More lines, now with the values ahead:

MIC [1]: ≥ 100 µM
MIC [2]: ≥ 50 µM
MIC [3]: 25 µM (≈ 44.9 µg/mL)
MIC [4]: 12.5 µM and 25 µM
MIC [5]: 25 µM and 22 µM
MIC [6]: 50 µM (≈ 89.7 µg/mL)
MIC [7]: 12.5 µM (≈ 22.4 µg/mL)
MIC [8]: 100 µM (≈ 179 µg/mL)
MIC [9]: 50 µM (≈ 89.7 µg/mL)
Structure (SMILES): CC(C)C[C@H](NC(=O)[C@H](Cc1cnc[nH]1)NC(=O)[C@H](CCCCN)NC(=O)[C@H](CC(C)C)NC(=O)[C@H](CC(C)C)NC(=O)[C@H](Cc1cnc[nH]1)NC(=O)[C@H](CCCCN)NC(=O)[C@H](CC(C)C)NC(=O)[C@H](CC(C)C)NC(=O)[C@H](Cc1cnc[nH]1)NC(=O)[C@H](CCCCN)NC(=O)[C@H](CC(C)C)NC(=O)[C@H](C)NC(=O)[C@H](CC(=O)O)NC(=O)[C@@H](N)CC(=O)O)C(=O)O [DDALKHLLKHLLKHL]

MIC [10]: 5 µM (≈ 7.8 µg/mL)
MIC [11]: 4 µM (≈ 6.24 µg/mL)
MIC [12]: 0.4 µM (≈ 0.624 µg/mL)
MIC [13]: 2 µM (≈ 3.12 µg/mL)
MIC [14]: 0.6 µM (≈ 0.937 µg/mL)
MIC [15]: 0.3 µM (≈ 0.468 µg/mL)
MIC [6]: 1.5 µM (≈ 2.34 µg/mL)
MIC [8]: 0.9 µM (≈ 1.4 µg/mL)
MIC [16]: 2 µM (≈ 3.12 µg/mL)
MIC [17]: 4 µM (≈ 6.24 µg/mL)
MIC [18]: 3 µM (≈ 4.68 µg/mL)
MIC [19]: 6 µM (≈ 9.37 µg/mL)
Structure (SMILES): CC[C@H](C)[C@H](NC(=O)[C@H](CCCN=C(N)N)NC(=O)[C@H](CCCN=C(N)N)NC(=O)[C@H](Cc1ccccc1)NC(=O)[C@H](CC(C)C)NC(=O)[C@H](CCCN=C(N)N)NC(=O)[C@@H](N)CCCN=C(N)N)C(=O)N[C@@H](CC(C)C)C(=O)N[C@@H](CCCN=C(N)N)C(=O)N[C@@H](Cc1ccc(O)cc1)C(=O)N[C@@H](CC(C)C)C(N)=O [RRLFRRILRYL]

MIC [25]: 0.814 µM (≈ 2.61 µg/mL)
MIC [26]: 3.9 µM (≈ 12.5 µg/mL)
MIC [27]: 2.6 µM (≈ 8.33 µg/mL)
MIC [28]: 5.2 µM (≈ 16.7 µg/mL)
MIC [14]: 4.55 µM (≈ 14.6 µg/mL)
MIC [29]: 3.25 µM (≈ 10.4 µg/mL)
MIC [30]: 2.92 µM (≈ 9.37 µg/mL)
MIC [31]: 2.25 µM (≈ 7.21 µg/mL)
MIC [32]: 2.6 µM (≈ 8.33 µg/mL)
MIC [8]: 1.62 µM (≈ 5.21 µg/mL)
MIC [33]: 2.25 µM (≈ 7.21 µg/mL)
MIC [34]: 0.976 µM (≈ 3.13 µg/mL)
MIC [19]: 2.25 µM (≈ 7.21 µg/mL)
MIC [35]: 3.9 µM (≈ 12.5 µg/mL)
Structure (SMILES): CC[C@H](C)[C@H](NC(=O)[C@H](CCCCN)NC(=O)[C@H](CCCN=C(N)N)NC(=O)[C@H](CC(C)C)NC(=O)[C@H](Cc1ccccc1)NC(=O)[C@H](CCCN=C(N)N)NC(=O)CNC(=O)[C@H](Cc1ccccc1)NC(=O)[C@@H](N)CCCN=C(N)N)C(=O)N[C@@H](CCCN=C(N)N)C(=O)N[C@@H](CCCN=C(N)N)C(=O)N[C@@H](Cc1ccccc1)C(=O)N[C@@H](CCCN=C(N)N)C(=O)N1CCC[C@H]1C(=O)N[C@@H](CCCCN)C(=O)N[C@H](C(=O)N[C@H](C(=O)N[C@H](C(=O)N[C@H](C(=O)N[C@H](C(=O)N[C@@H](CCC(N)=O)C(=O)NCC(=O)N[C@@H](CO)C(=O)N[C@@H](C)C(=O)N[C@@H](CCCN=C(N)N)C(=O)N[C@@H](Cc1ccccc1)C(N)=O)[C@@H](C)CC)[C@@H](C)O)[C@@H](C)CC)[C@@H](C)O)C(C)C [RFGRFLRKIRRFRPKVTITIQGSARF]
